Source: patent US20190381108A1, “COMPOSITION FOR IMPROVING BONE HEALTH, INCLUDING FUNCTIONAL FERMENTED MATERIAL USING OYSTERS” (Jeju National University Industry-Academic Cooperation …, priority 2018, published 2019)

Test system: RAW 264.7 cells
Experiment: Production of ROS in cells (DCF-DA, flow cytometry)
Type: cell-based, murine
Details: RANKL 100 ng/mL; DCF-DA staining
Procedure: After RAW 264.7 cells were aliquoted at 5×10^4 cells/well into 6-well plates and stabilized for 24 hours, RAW 264.7 cells were induced into differentiation by RANKL (100 ng/mL), treated with FO at each concentration, cultured for 5 days, and then stained at 37° C. for 30 minutes by treatment with 10 μM DCF-DA, and then measured using flow cytometry.
It is known that oxidative stress in cells occurs during the differentiation of osteoclasts induced by RANKL. Therefore, the effects of FO on the production of ROS induced by RANKL was confirmed through DCF-DA staining.

SMILES: CC(=O)N[C@@H](CS)C(=O)O [NAC]
- ROS increased in the osteoclasts treated with RANKL: also similarly observed
